For this experiment, the target named is T1, EPHA2 (Homo sapiens, UniProt P29317).
T1 construct: purchased Thermo Fisher Scientific (Life Technologies) SelectScreen
Description: SelectScreen Z'LYTE. The experiment is classed as biochemical. Put shortly: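 NU5455 was profiled across the SelectScreen Broad panel of kinase activity and binding assays. Z'LYTE reactions such as CSF1R ran at apparent Km ATP, while the Adapta CAMK1 assay used ATP listed as 10. Values are given as percent.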

SMILES strings stand for the structures.

T1 sequence (P29317 24-976): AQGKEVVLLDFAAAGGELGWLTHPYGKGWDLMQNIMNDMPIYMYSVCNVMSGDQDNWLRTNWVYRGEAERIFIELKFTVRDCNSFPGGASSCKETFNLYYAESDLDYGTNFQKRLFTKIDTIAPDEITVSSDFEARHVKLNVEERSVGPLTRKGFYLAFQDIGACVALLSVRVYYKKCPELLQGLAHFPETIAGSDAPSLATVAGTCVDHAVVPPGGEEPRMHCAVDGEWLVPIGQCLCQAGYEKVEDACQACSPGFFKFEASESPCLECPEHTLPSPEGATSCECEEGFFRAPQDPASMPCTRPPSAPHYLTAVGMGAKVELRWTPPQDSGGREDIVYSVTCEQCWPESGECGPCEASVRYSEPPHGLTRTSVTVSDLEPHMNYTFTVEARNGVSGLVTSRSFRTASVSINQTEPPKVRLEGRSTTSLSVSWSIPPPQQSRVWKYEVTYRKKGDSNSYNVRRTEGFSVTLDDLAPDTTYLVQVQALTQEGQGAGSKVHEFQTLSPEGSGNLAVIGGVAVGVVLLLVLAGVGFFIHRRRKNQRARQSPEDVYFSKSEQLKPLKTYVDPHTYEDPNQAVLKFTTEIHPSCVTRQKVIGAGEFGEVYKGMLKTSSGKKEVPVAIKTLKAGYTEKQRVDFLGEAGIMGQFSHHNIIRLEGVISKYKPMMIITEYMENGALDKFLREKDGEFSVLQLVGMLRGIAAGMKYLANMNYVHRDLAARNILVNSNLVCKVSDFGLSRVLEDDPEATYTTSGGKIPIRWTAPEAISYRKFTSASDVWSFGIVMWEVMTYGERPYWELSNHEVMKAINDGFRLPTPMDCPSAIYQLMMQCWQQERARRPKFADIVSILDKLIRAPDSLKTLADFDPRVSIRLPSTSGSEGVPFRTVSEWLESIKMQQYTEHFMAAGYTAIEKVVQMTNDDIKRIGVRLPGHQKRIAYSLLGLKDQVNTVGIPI

For orientation: inhibition means the change of the read-out against control, counted positive when it falls. A high value points to a response far below the control. Regarding `CN(C(=O)CN1CCOCC1)c1ccc2sc3c(-c4cccc5c(=O)cc(N6CC7CCC(C6)O7)oc45)cccc3c2c1` [NU5455], at 1 µM the inhibition was 4.8%.

Source of the values: paper PMC6934184, “Selective DNA-PKcs inhibition extends the therapeutic index of localized radiotherapy and chemotherapy” (The Journal of Clinical Investigation, 2019).
